Results reported in patent US20260258051A1, “Camptothecin Compound, Preparation Method Therefor and Use Thereof” (SICHUAN KELUN-BIOTECH BIOPHARMACEUTICAL CO., LTD., priority 2022, published 2026).
Read-outs that look alike come from different tables or passages of the source.

Columns and labels:
Jeko-1 cells = test: Inhibitory effect on Jeko-1 cell proliferation; format: cell-based; details: Homo sapiens; Jeko-1, 72 h incubation, Cell Counting-Lite 2.0
Experimental: (1) Cell plating: First, tumor cells Jeko-1 were cultured with corresponding culture medium, the cells were resuspended and counted, and finally the cells were adjusted to an appropriate concentration for plating.
(§1) Co-incubation of the compounds of the present invention and tumor cells: 90 μL of cell suspension was added to 96-well plates respectively. After cell adherence, 10 μL of bioactive molecules (compounds of the present invention) diluted with culture medium were added into the wells of the above plates, and incubated for 72 h.
(§2) In vitro cell viability detection: After the incubation, 50 μL of Cell Counting-Lite™ 2.0 reagent (Vazyme) was added to each well, shaken and mixed well in the dark, and reacted for 10 minutes before testing. Microplate reader (manufacturer: BMG, Model: PHERA Star-FS) was used for reading. The culture wells without cells were used as the background RLU, and the culture wells with cells but no compound were used as the cell control RLU. Cell inhibition rate=1−(sample RLU−background RLU)/(cell control RLU−background RLU)×100%. The half-inhibition concentration (IC50) of compound was calculated by fitting the curve according to the four-parameter model.

[1] = Permeability test in MDCK cell model; format: in vitro ADME; details: dog
Experimental: (§3) The MDCK cell model was used to evaluate the permeability of the compounds, the LC-MS/MS method was used to determine the concentration of the substance to be tested, and the apparent permeability coefficient (Papp) and efflux ratio were calculated [Efflux ratio=Papp(B→A)/Papp(A→B)].
(§4) Complete culture medium: 10% fetal bovine serum and 1% penicillin/streptomycin were added to MEM culture medium.
(§5) Digestive solution: 0.05% trypsin-EDTA.
(§6) HBSS buffer: HBSS containing Ca^2+, Mg^2+.
(§7) Permeating solution: HBSS containing 10 mM Hepes, 4% BSA, pH 7.4.
(§8) Compound stock solution: a certain amount of the compound to be tested was weighed and formulated with DMSO to prepare a 10 mM stock solution.
(§9) MDCK cells (26th generation) in the logarithmic growth phase were digested and dispersed evenly with 0.05% trypsin-EDTA, and then inoculated into the Transwell chamber at 3*10^5 cells/cm^2, with 200 μL on the A side and 1000 μL on the B side. After inoculation, the medium was changed once every day and the culturing was carried out for 3 to 4 days.
(§10) The cell culture medium was discarded by pipetting, then washing was carried out three times with the permeating solution. 200 μL of permeating solution was added to A side and 1000 μL of permeating solution was added to B side. A voltage resistance meter was used to measure the cell transmembrane resistance (TEER). After the TEER value of the cells was measured, the permeating solution on both sides was discarded by pipetting, and the solution was added. After 120 minutes, 150 μL of samples were taken from A side and B side, respectively, and frozen at −80° C. before testing. Then, 10 μg/ml Fluorescent Yellow was added to A side. After incubation for 30 minutes, 100 μL of solution at B side was pipetted and added into a 96-well white plate. The fluorescence value was measured at the wavelengths of Ex=485 nm and Em=530 nm using a microplate reader, and the permeance was calculated (which was less than 1%).
(§11) 80 μL of the compound to be tested was taken, added to 320 μL of acetonitrile solution containing internal standard (30 ng/mL Tolbutamide), vortexed, and centrifuged for 10 min (4000 rpm, 4° C.), and the supernatant was taken for LC-MS/MS analysis.
(§12) Excel 2013 was used to calculate Papp values and Papp ratio of B side→A side to A side→B side, and the recovery rates of each Control Compound and the compound to be tested were calculated.
(§13) Apparent permeability coefficient (Papp) of compound was calculated according to the following formula:
(§14) C0 was the initial concentration (μM) of the drug to be tested at the donor, (dCr/dt)×Vr was the rate (μM/s) at which the drug to be tested appeared at the receiver, Vr was the solution volume (mL) at the receiver, and A was the surface area (cm^2) of polycarbonate membrane.
(§15) Evaluation criteria: Low permeability: Papp≤0.5 (×10^−6 cm/s) • Medium permeability: 0.5<Papp<2.5 (×10^−6 cm/s) • High permeability: Papp≥2.5 (×10^−6 cm/s)
(§16) Efflux ratio (ER) was calculated according to Papp:
(§17) [formula] • wherein, Papp(B→A) was the apparent permeability coefficient of the drug to be tested from the BL (baso-lateral) end to the AP (apical) end, and Papp (A→B) was the apparent permeability coefficient of the drug to be tested from the AP end to the BL end.
(§18) • Probably being an efflux transporter substrate (Probably): ERa≥2 and ERa/ERi>2 • Likely being an efflux transporter substrate (Likely): ERa≥2 • Unlikely or impossibly being an efflux transporter substrate (Poor or non): ERa<2 • wherein, ERi and ERa were the efflux ratios of the compound to be tested in the presence and absence of P-gp inhibitor, respectively.

MDCK cells = test: Permeability test in MDCK cell model; format: in vitro ADME
Experimental: as §3, §4, §5, §6, §7, §8, §9, §10, §11, §12, §13, §14, §15, §16, §17, §18

MDA-MB-231 cells = test: Inhibitory effect on MDA-MB-231 cell proliferation; format: cell-based; details: Homo sapiens; MDA-MB-231, 72 h incubation, Cell Counting-Lite 2.0
Experimental: (1) Cell plating: First, tumor cells MDA-MB-231 were cultured with corresponding culture medium, the cells were digested with trypsin and centrifuged, then the cells were resuspended and counted, and the cells were adjusted to an appropriate concentration for plating.
as §1, §2

NCI-H358 cells = test: Inhibitory effect on NCI-H358 cell proliferation; format: cell-based; details: Homo sapiens; NCI-H358, 72 h incubation, Cell Counting-Lite 2.0
Experimental: (1) Cell plating: First, tumor cells NCI-H358 were cultured with corresponding culture medium, the cells were digested with trypsin and centrifuged, then the cells were resuspended and counted, and the cells were adjusted to an appropriate concentration for plating.
as §1, §2

HCC1806 cells = test: Inhibitory effect on HCC1806 cell proliferation; format: cell-based; details: Homo sapiens; HCC1806, 72 h incubation, Cell Counting-Lite 2.0
Experimental: (1) Cell plating: First, tumor cells HCC1806 were cultured with corresponding culture medium, the cells were digested with trypsin and centrifuged, then the cells were resuspended and counted, and the cells were adjusted to an appropriate concentration for plating.
as §1, §2

HT29 cells = test: Inhibitory effect on HT29 cell proliferation; format: cell-based; details: Homo sapiens, HT-29; HT29, 72 h incubation, Cell Counting-Lite 2.0
Experimental: (1) Cell plating: First, tumor cells HT29 were cultured with corresponding culture medium, the cells were digested with trypsin and centrifuged, then the cells were resuspended and counted, and the cells were adjusted to an appropriate concentration for plating.
as §1, §2

NCI-N87 cells = test: Inhibitory effect on NCI-N87 cell proliferation; format: cell-based; details: Homo sapiens, NCI-N87, 72 h, read-out: IC50 (nM), inhibitory activity on NCI-N87 cell proliferation
Experimental: (1) Cell plating: First, tumor cells NCI-N87 were cultured with corresponding culture medium, the cells were digested with trypsin and centrifuged, then the cells were resuspended and counted, and the cells were adjusted to an appropriate concentration for plating.
as §1, §2

MDA-MB-453 cells = test: Inhibitory effect on MDA-MB-453 cell proliferation; format: cell-based; details: Homo sapiens; MDA-MB-453, 72 h incubation, Cell Counting-Lite 2.0
Experimental: (1) Cell plating: First, tumor cells MDA-MB-453 were cultured with corresponding culture medium, the cells were digested with trypsin and centrifuged, then the cells were resuspended and counted, and the cells were adjusted to an appropriate concentration for plating.
as §1, §2

HCC1954 cells = test: Inhibitory effect on HCC1954 cell proliferation; format: cell-based; details: Homo sapiens; HCC1954, 72 h incubation, Cell Counting-Lite 2.0
Experimental: (1) Cell plating: First, tumor cells HCC1954 were cultured with corresponding culture medium, the cells were digested with trypsin and centrifuged, then the cells were resuspended and counted, and the cells were adjusted to an appropriate concentration for plating.
(§19) Co-incubation of the compounds of the present invention and tumor cells: After cell adherence, the culture medium in the cells was removed, and the diluted bioactive molecules (compounds of the present invention) were added into the wells of the above plates, and incubated for 72 h.
(§20) In vitro cell viability detection: After the incubation, 50 μL of Cell Counting-Lite™ 2.0 reagent (Vazyme) was added to each well, shaken and mixed well in the dark, and reacted for 10 minutes before testing. Microplate reader (manufacturer: BMG, Model: PHERA Star-FS) was used for reading. The Cell Counting-Lite™ without cells was used to obtain the background RLU, and the Cell Counting-Lite™ with cells was used obtain the solvent RLU. Cell inhibition rate=1−(sample RLU−background RLU)/(solvent RLU−background RLU)×100%. The half-inhibition concentration (IC50) of compound was calculated by fitting the curve according to the four-parameter model. RLU: relative light unit.

HCC827 cells = test: Inhibitory effect on HCC827 cell proliferation; format: cell-based; details: Homo sapiens; HCC827, 72 h incubation, Cell Counting-Lite 2.0
Experimental: (1) Cell plating: First, tumor cells HCC827 were cultured with corresponding culture medium, the cells were digested with trypsin and centrifuged, then the cells were resuspended and counted, and the cells were adjusted to an appropriate concentration for plating.
as §19, §20

[2] = Liver microsome stability test (human); format: in vitro ADME; details: 1 μM
Experimental: (§21) Liver microsomes were used as an in vitro model to evaluate the metabolic stability of compounds in human and monkey liver microsomes.
Mixed human liver microsomes: Xenotech, USA
(§22) The positive compound testosterone or the tested substance (liver microsome solution, 50 μL) was mixed with PBS (25 μL). After pre-incubation (37° C.) for 5 min, NADPH (25 μL) was added to make the final concentration of the positive compound or the tested substance 1 μM, the final concentration of human liver microsomal protein was 0.5 mg/ml, the final concentration of monkey liver microsomal protein was 1 mg/ml, the tested substance group and the positive compound group were incubated for 0 min, 15 min. After being reacted for corresponding time, 300 μL of ice-cold acetonitrile containing internal standard was added to terminate the reaction, vortexed, and stored at −80° C. for later analysis. All incubated samples were double samples.
(§23) The tested compound was vortexed for 1 min, and centrifuged for 10 min (4° C., 4000 rpm), and 300 μL of the supernatant was taken for LC-MS/MS analysis.
(§24) Excel software was used to calculate the remaining rate (%) of the drug in primary form in the incubation system: […]

NCI-H1975 cells = test: Inhibitory effect on NCI-H1975 cell proliferation; format: cell-based; details: Homo sapiens; NCI-H1975, 72 h incubation, Cell Counting-Lite 2.0
Experimental: (1) Cell plating: First, tumor cells NCI-H1975 were cultured with corresponding culture medium, the cells were digested with trypsin and centrifuged, then the cells were resuspended and counted, and the cells were adjusted to an appropriate concentration for plating.
as §19, §20

[3] = Liver microsome stability test (monkey); format: in vitro ADME, cynomolgus; details: 1 μM
Experimental: as §21
Mixed male cynomolgus liver microsomes: RILD, China
as §22, §23, §24

[4] = pH 7.4, 2.00 μM, Papp(B→A)/Papp(A→B), absence of P-gp inhibitor, read-out: Efflux ratio (ERa)

CC[C@@]1(O)C(=O)OCc2c1cc1n(c2=O)Cc2c-1nc1cc(F)c(Cl)cc1c2CNC(=O)CO [Compound 2-1, (S)—N-((9-chloro-4-ethyl-8-fluoro-4-hydroxy-3,14-dioxy-3,4,12,14-tetrahydro-1H-pyrano[3′,4′:6,7]indolizino[1,2-b]quinolin-11-yl)methyl)-2-hydroxyacetamide]
IC50 (Jeko-1 cells): 1.62 nM | Papp A→B at 120 min, 2 μM ([1]; pH 7.4): 0.52 ×10⁻⁶ cm/s | Papp B→A at 120 min, 2 μM ([1]; pH 7.4): 0.42 ×10⁻⁶ cm/s | efflux ratio at 120 min, 2 μM [1, 4]: 0.81 | Permeability class according to the Papp(A→B) results (MDCK cells): medium-permeability | Efflux transporter substrate evaluation from efflux ratio (MDCK cells; 2.00 μM): not efflux transporter substrates or were weak efflux transporter substrates | IC50 (MDA-MB-231 cells): 38.5 nM | IC50 (NCI-H358 cells): 121 nM | IC50 (HCC1806 cells): 8.08 nM | IC50 (HT29 cells): 14.6 nM | IC50 (NCI-N87 cells): 81.6 nM | IC50 (MDA-MB-453 cells): 156 nM

CC[C@@]1(O)C(=O)OCc2c1cc1n(c2=O)Cc2c-1nc1cc(F)c(Cl)c3c1c2[C@@H](NC(=O)C[C@H](C)O)CC3 [Compound 2-25, (S)—N-((1S,9S)-4-chloro-9-ethyl-5-fluoro-9-hydroxy-10,13-dioxo-2,3,9,10,13,15-hexahydro-1H,12H-benzo[d]pyrano[3′,4′:6,7]indolizino[1,2-b]quinolin-1-yl)-3-hydroxybutyamide]
IC50 (HCC1954 cells): 171 nM | Papp A→B at 120 min, 2 μM ([1]; pH 7.4): 0.78 ×10⁻⁶ cm/s | Papp B→A at 120 min, 2 μM ([1]; pH 7.4): 3.56 ×10⁻⁶ cm/s | efflux ratio at 120 min, 2 μM ([1]; pH 7.4): 4.57 | Permeability class according to the Papp(A→B) results (MDCK cells): medium-permeability | IC50 (HCC827 cells): 110 nM | Remaining rate (%) Human ([2]; human, microsomes, 0.25 h): 80.0% | IC50 (NCI-H1975 cells): 29.4 nM | Remaining rate (%) Monkey ([3]; male, monkey, microsomes, 0.25 h): 79.5%

CC[C@@]1(O)C(=O)OCc2c1cc1n(c2=O)Cc2c-1nc1cc(F)c(C)c3c1c2[C@@H](NC(=O)C[C@H](C)O)CC3 [Control Compound 4, reference compound]
efflux ratio at 120 min, 2 μM [1, 4]: 21.7 | Papp A→B at 120 min, 2 μM ([1]; pH 7.4, concentration 2.00 μM, 120 minutes, A to B, read-out: Papp A to B): 0.24 ×10⁻⁶ cm/s | Papp B→A at 120 min, 2 μM ([1]; pH 7.4, concentration 2.00 μM, 120 minutes, B to A, read-out: Papp B to A): 5.25 ×10⁻⁶ cm/s | Efflux transporter substrate evaluation from efflux ratio (MDCK cells; 2.00 μM): could be efflux transporter substrates | Permeability class according to the Papp(A→B) results (MDCK cells; 2.00 μM): low-permeability | Remaining rate (%) Human ([2]; human liver microsomes 0.5 mg/ml, 15 min, NADPH): 64.6% | Remaining rate (%) Monkey ([3]; monkey liver microsomes 1 mg/ml, 15 min, NADPH): 65.1%
